{"source": "paper PMC5700055", "about": "“Structural basis of cholesterol binding by a novel clade of dendritic cell modulators from ticks” (Scientific Reports, 2017)", "biological_target": "T1, Japanin (Rhipicephalus appendiculatus, UniProt M1MR49)", "T1 construct": "polyhistidine-tagged recombinant secretory lipocalin, Sf9 baculovirus; 18 kDa; N-glycosylated at Asn35 and Asn131; homodimer; disulphides Cys28-Cys150, Cys114-Cys138; modelled residues 1-154", "T1 sequence (M1MR49 25-176)": "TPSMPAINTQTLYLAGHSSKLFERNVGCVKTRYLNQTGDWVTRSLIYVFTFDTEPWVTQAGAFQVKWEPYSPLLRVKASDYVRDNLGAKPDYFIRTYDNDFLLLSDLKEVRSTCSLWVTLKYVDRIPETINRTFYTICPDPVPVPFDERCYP", "assay": "X-ray crystallography ([…] and […] Å)", "type": "binding", "details": "co-purified ligand, no cholesterol added; one per monomer in closed lipocalin barrel pocket; crystals pH 6.9-7.2 (4boe) and pH 4.5 (4bqu), 21 °C", "data": [{"smiles": "CC(C)CCC[C@@H](C)[C@H]1CC[C@H]2[C@@H]3CC=C4C[C@@H](O)CC[C@]4(C)[C@H]3CC[C@]12C", "note": "[CLR, cholesterol]", "values": [{"measurement": "X-ray crystallography (2.2 and 2.4 Å)", "result": "each molecule in the crystals binds one molecule of cholesterol"}]}]}
